Experimental findings from US10889572B2, “Reactive oxygen species scavengers and use for treating diseases” (XW LABORATORIES INC., priority 2017, dated 2021) are described below.

The first assay deals with HT-1080 (fibrosarcoma) cells. Briefly: Primary screening by ferroptosis assay (Erastin-induced, cell viability, CellTiter-Glo). The format is cell-based. The note with it: HT-1080 cells, 30 hours, % remaining activity, read-out: EC50, Inhibition for Ferroptosis in HT-1080 Cell. As for the experimental part: Cell Lines and Media: HT-1080 (fibrosarcoma) cells were obtained from American Type Culture Collection. Cells were grown in EMEM media, 10% Heat-Inactivated FBS, and penicillin-streptomycin mix (Invitrogen). Cells were maintained at 37° C. and 5% CO2 in a tissue culture incubator.
Cell Viability Assay: Seed 10,000 cell/well of HT-1080 cells with 195 μL growth media in black and clear bottom 96-well plates (Cat #Corning 3904) and allow cells to adhere overnight. The next day, dilute test compound by 2-fold dilution into 12 points with medium containing 400 μM Erastin. Transfer 5 μL of compounds solution into growth medium in triplicated wells. 30 hours later, add Cell Titer-Glo® Luminescent cell viability assay reagent (Cat #, Promega G8081) to measure HT-1080 cell viability according to the manufacture protocol. Briefly, aspirate 100 μL medium, and add 50 μL CellTiter-Glo® Luminescent reagent to each well and incubated for 30 minutes at room temperature to stabilize the Luminescent signal. Seal the plates and centrifuged for 1 minute at 1,000 rpm to remove bubbles. Shake the plates for 1 minute on an orbital shaker. Read the plate to detect Luminescent signal with EnSpire Multimode Plate Reader (PerkinElmer). The remaining activity % is used to evaluate Erastin induced ferroptosis in HT-1080 cells and expressed as the following formula: % Remaining Activity−100×[(Sample−Backgroundavg)/(Vehicle−Background avg)]
Sample: Readout from the test compound
Vehicle: Readout from the vehicle sample
Background: Readout from the Erastin only treatment
Dose response curve is graphed by using the non-linear regression analysis (formula equation 201) in XLFit (Excel add-in software) for the average % remaining activity from triplicates, and the EC50 values is then calculated. In this anti-ferroptosis assay, ferrostatin-1, and XJB-5-131 are included as reference. The acceptance criteria were set based on historical result, mean±2.58*SD in logarithmic scale, meanwhile Z′>0.5.
Regarding `CC(C)C[C@@H](/C=C/[C@H](Cc1ccccc1)C(=O)N1CCC[C@H]1C(=O)N[C@@H](CCCCNC(=O)OCc1ccccc1)C(=O)NC1CC(C)(C)N(O)C(C)(C)C1)NC(=O)OC(C)(C)C` [Example XXVII, Benzyl N-[(5S)—5-{[(2S)-1-[(2S,3E,5S)-2-benzyl-5-{[(tertbutoxy)carbonyl]amino}-7-methyloct-3-enoyl]pyrrolidin-2-yl]formamido}-5-[(1-hydroxy-2,2,6,6-tetramethylpipe-ridin-4-yl)carbamoyl]pentyl]carbamate], the EC50 worked out at 0.141 µM. Same read-out and setting: with `CC(C)C[C@@H](/C=C/[C@H](Cc1ccccc1)C(=O)N1CCC[C@H]1C(=O)N[C@@H](CCCNC(=O)OC1CC(C)(C)N(O)C(C)(C)C1)C(=O)OC(C)C)NC(=O)OC(C)(C)C` [Example XXX, Propan-2-yl (2S)—2-{[(2S)-1-[(2S,3E,5S)-2-benzyl-5-{[(tert-butoxy)carbonyl]amino}-7-methyloct-3-enoyl]pyrrolidin-2-yl]formamido}-5-({[(1-hydroxy-2,2,6,6-tetramethylpiperidin-4-yl)oxy]carbonyl}amino)pentanoate] the figure was 0.046 µM; with `CC(C)C[C@@H](/C=C/[C@H](Cc1ccccc1)C(=O)N1CCC[C@H]1C(=O)N[C@@H](CCCNC(=O)OCc1ccccc1)C(=O)OC1CC(C)(C)N(O)C(C)(C)C1)NC(=O)OC(C)(C)C` [Example XXXXI, (S)-1-hydroxy-2,2,6,6-tetramethylpiperidin-4-yl 2-((S)-1-((2S,5S,E)-2-benzyl-5-((tert-butoxycarbonyl)amino)-7-methyloct-3-enoyl)pyrrolidine-2-carboxamido)-5-(((benzyloxy)carbonyl)amino)pentanoate], 0.139 µM. With `CC(C)C[C@@H](/C=C/[C@H](Cc1ccccc1)C(=O)N1CCC[C@H]1C(=O)N[C@@H](CCCNC(=O)OC1CC(C)(C)N(O)C(C)(C)C1)C(=O)NC(C)C)NC(=O)OC(C)(C)C` [Example XXXXV], the concentration giving a half-maximal response (EC50) amounted to 0.144 µM. Still for that read-out and setting: with `COC(=O)[C@H](CCCNC(=O)OC1CC(C)(C)N(O)C(C)(C)C1)NC(=O)[C@@H](NC(=O)[C@@H]1CCCN1C(=O)[C@H](/C=C/[C@H](CC(C)C)NC(=O)OC(C)(C)C)Cc1ccccc1)C(C)C` [XXXIX, (S)-methyl 2-((S)-2-((S)-1-((2S,5S,E)-2-benzyl-5-((tert-butoxycarbonyl)amino)-7-methyloct-3-enoyl)pyrrolidine-2-carboxamido)-3-methylbutanamido)—5-((((1-hydroxy-2,2,6,6-tetramethylpiperidin-4-yl)oxy)carbonyl)amino)pentanoate] the figure was 0.142 µM.

The same assay, now with this note: Homo sapiens, HT-1080, 30 h, HT-1080 cells, % remaining activity, read-out: EC50, Inhibition for Ferroptosis in HT-1080 Cell.
In the case of `CC(C)C[C@@H](/C=C/[C@H](Cc1ccccc1)C(=O)N1CCC[C@H]1C(=O)N[C@@H](CCCCNC(=O)C1CC(C)(C)N(O)C1(C)C)C(=O)OC(C)C)NC(=O)OC(C)(C)C` (stereo partly drawn) [Example XXXII, Propan-2-yl (2S)—2-{[(2S)-1-[(2S,3E,5S)-2-benzyl-5-{[(tert-butoxy)carbonyl]amino}-7-methyloct-3-enoyl]pyrrolidin-2-yl]formamido}-6-[(1-oxyl-2,2,5,5-tetramethylpyrrolidin-3-yl)formamido]-hexanoate], the EC50 is 0.573 µM. In the case of `CC(C)C[C@@H](/C=C/[C@H](Cc1ccccc1)C(=O)N1CCC[C@H]1C(=O)N[C@H](CCCCNC(=O)OC1CC(C)(C)N(O)C(C)(C)C1)C(=O)OC(C)C)NC(=O)OC(C)(C)C` [Example XXXIII, Propan-2-yl (2R)—2-{[(2S)-1-[(2S,3E,5S)-2-benzyl-5-{[(tert-butoxy)carbonyl]amino}-7-methyloct-3-enoyl]pyrrolidin-2-yl]formamido}-6-({[(1-oxyl-2,2,6,6-tetramethylpiperidin-4-yl)oxy]carbonyl}amino)hexanoate], the EC50 worked out at 0.291 µM. The same measure, in the same setting: the result for `CCN(CC)C(=O)[C@H](CCCNC(=O)OC1CC(C)(C)N(O)C(C)(C)C1)NC(=O)[C@@H]1CCCN1C(=O)[C@H](/C=C/[C@H](CC(C)C)NC(=O)OC(C)(C)C)Cc1ccccc1` [Example XXXV, tert-Butyl N-[(4S,5E,7S)-7-benzyl-8-[(2S)—2-{[(1S)-1-(diethylcarbamoyl)-4-({[(1-oxyl-2,2,6,6-tetramethylpiperidin-4-yl)oxy]carbonyl}amino)-butyl]carbamoyl}pyrrolidin-1-yl]-2-methyl-8-oxooct-5-en-4-yl]carbamate] reads 0.192 µM; that for `CC(C)C[C@@H](/C=C/[C@H](Cc1ccccc1)C(=O)N1CCC[C@H]1C(=O)N[C@@H](CCCCNC(=O)OC1CC(C)(C)N(O)C(C)(C)C1)C(=O)NC(C)(C)C)NC(=O)OC(C)(C)C` [Example XXXVI, tert-Butyl N-[(4S,5E,7S)-7-benzyl-8-[(2S)—2-{[(1S)-1-(tert-butylcarbamoyl)-5-({[(1-oxyl-2,2,6,6-tetramethylpiperidin-4-yl)oxy]carbonyl}amino)pentyl]-carbamoyl}pyrrolidin-1-yl]-2-methyl-8-oxooct-5-en-4-yl]carbamate], 0.142 µM; that for `CC(C)C[C@@H](/C=C/[C@H](Cc1ccccc1)C(=O)N1CCC[C@H]1C(=O)N[C@@H](CCCCNC(=O)OC1CC(C)(C)N(O)C(C)(C)C1)C(=O)NC(C)C)NC(=O)OC(C)(C)C` [Example XXXVII, tert-Butyl N-[(4S,5E,7S)-7-benzyl-8-[(2S)—2-{[(1S)-5-({[(1-oxyl-2,2,6,6-tetramethylpiperidin-4-yl)oxy]carbonyl}amino)-1-[(propan-2-yl)carbamoyl]pentyl]carbamoyl}pyrrolidin-1-yl]-2-methyl-8-oxooct-5-en-4-yl]carbamate], 0.201 µM. The same measure, in the same setting: with `CC(C)C[C@@H](/C=C/[C@H](Cc1ccccc1)C(=O)N1CCC[C@H]1C(=O)N[C@@H](CCCNC(=O)OCc1ccccc1)C(=O)OC1CC(C)(C)N(O)C(C)(C)C1)NC(=O)OC(C)(C)C` [Example XXXX, (S)-1-Oxyl-2,2,6,6-tetramethylpiperidin-4-yl 2-((S)-1-((2S,5S,E)-2-benzyl-5-((tert-butoxycarbonyl)amino)-7-methyloct-3-enoyl)pyrrolidine-2-carboxamido)-5-(((benzyloxy)carbonyl)amino)pentanoate] the figure was 0.14 µM; with `CC(C)C[C@@H](/C=C/[C@H](Cc1ccccc1)C(=O)N1CCC[C@H]1C(=O)N[C@H](CCCCNC(=O)OC1CC(C)(C)N(O)C(C)(C)C1)C(=O)O)NC(=O)OC(C)(C)C` [XXXIV, (2R)—2-{[(2S)-1-[(2S,3E,5S)-2-benzyl-5-{[(tert-butoxy)carbonyl]amino}-7-methyloct-3-enoyl]pyrrolidin-2-yl]formamido}-6-({[(1-oxyl-2,2,6,6-tetramethylpiperidin-4-yl)oxy]carbonyl}amino)hexanoic acid], greater than 4 µM.

The same assay, now with this note: Homo sapiens, HT-1080 cells, 30 hours, % remaining activity, read-out: EC50, Inhibition for Ferroptosis in HT-1080 Cell.
Regarding `CC(C)C[C@@H](/C=C/[C@H](Cc1ccccc1)C(=O)N1CCC[C@H]1C(=O)N[C@H](C(=O)N[C@@H](CCCNC(=O)OC1CC(C)(C)N(O)C(C)(C)C1)C(=O)NC(C)C)C(C)C)NC(=O)OC(C)(C)C` [Example XXXXVII, tert-Butyl N-[(4S,5E,7S)-7-benzyl-8-[(2S)—2-{[(1S)—1-{[(1S)-4-({[(1-oxyl-2,2,6,6-tetramethylpiperidin-4-yl)oxy]carbonyl}amino)-1-[(propan-2-yl)carbamoyl]butyl]carbamoyl}-2-methylpropyl]carbamoyl}pyrrolidin-1-yl]-2-methyl-8-oxooct-5-en-4-yl]carbamate], the EC50 was found to be 0.143 µM.
